The values that follow are results of earlier work, collected in US20240352228A1, “NOVEL FLAME RETARDANT” (Chemische Fabrik Budenheim KG, priority 2021, published 2024).

For this data set the following is noted: general statement in description, no method given.

As to `Nc1nc(N)nc(N)n1` [melamine, Melamine], the decomposition temperature is over 350 °C.
